System: human fibroblasts
Assay: DNA synthesis of human fibroblasts (3[H]-thymidine incorporation)
Format: cell-based
Conditions: fibroblasts of healthy donors, 48 h incubation with inhibitor, then 3[H]-methyl thymidine for further 6 h; dose-dependent (FIG. 3)
Description: Fibroblasts of healthy donors were incubated for 48 h together with the above-mentioned inhibitors, and the DNA synthesis was determined subsequently by a measurement of the ^3[H]-thymidine incorporation, as described by Reihold et al. (Reinhold D et al.: Inhibitors of dipeptidyl peptidase IV induce secretion of transforming growth factor β1 in PWM-stimulated PBMNC and T cells, Immunology 1997, 91: 354-360).
For measuring the dose-dependent effect of inhibitors of DP IV (Lys[Z(NO2)] thiazolidide) and of aminopeptidase N (Actinonin) on the DNA synthesis of human fibroblasts, cells were incubated for 48 h with the indicated concentrations of the inhibitors. Subsequently, ^3[H]-Methyl thymidine was added to the culture medium, and the amount of ^3[H]-thymidine incorporated into the DNA was measured after further 6 h.

| SMILES | inhibition of the DNA synthesis of human fibroblasts |
| --- | --- |
| N[C@@H](CCCCNC(=O)OCc1ccc([N+](=O)[O-])cc1)C(=O)N1CCSC1 [Lys[Z(NO2)] thiazolidide] | inhibited |
| CCCCC[C@H](CC(=O)NO)C(=O)N[C@H](C(=O)N1CCC[C@H]1CO)C(C)C [Actinonin] | inhibited |
